Assay results reported in paper PMC11519904, “Comprehensive Cell Biological Investigation of Cytochalasin B Derivatives with Distinct Activities on the Actin Network” (Journal of Natural Products, 2024).
Converted amounts (≈) assume the structure as drawn. “Also recorded” adds a separate entry of the source. Read-outs that look alike come from different tables or passages of the source.

Columns and labels:
[1] = tested on: Mycobacterium smegmatis (ATCC 7000084); assay: Serial dilution assay (MIC), M. smegmatis; format: cell-based; details: Mycolicibacterium smegmatis, ATCC7000084; growth inhibition at 24 h; read-out: minimum inhibitory concentration (MIC) against M. smegmatis
Procedure: (§1) Serial dilutions of compounds were prepared as triplicates in sterile U-bottom-shaped 96-well plates (Corning, USA). Mueller-Hinton broth (MHB) medium was used for bacteria, and YMG medium was used for filamentous fungi and yeasts. The selected organisms represent a broad spectrum of pathogens of clinical interest, as well as sensitive indicator strains (Gram-positive bacteria: Bacillus subtilis (DSM 10), Staphylococcus aureus (DSM 346), Mycobacterium smegmatis (ATCC 7000084); Gram-negative bacteria: Acinetobacter baumannii (DSM 30008), Chromobacterium violaceum (DSM 30191), Escherichia coli (DSM 1116), Pseudomonas aeruginosa (PA 14); fungi and yeast: Schizosaccharomyces pombe (DSM 70572), Pichia anomala (DSM 6766), Mucor hiemalis (DSM 2656), Candida albicans (DSM 1665), Rhodotorula glutinis (DSM 10134)).
(§2) The compounds were dissolved in MeOH (1 mg/mL), added to the bacterial suspension, and diluted to the final concentrations. The plate was incubated at 37 °C under static conditions. Growth inhibition was assessed at 24 h. MeOH was used as negative control. […]

[2] = tested on: filamentous actin (F-actin) in U-2OS wild type (wt) cells; assay: Actin disruption assay in U-2OS cells (phalloidin staining); format: cell-based, human; details: for effect on F-actin network, high dose 1 h: 5 x IC50 (L929), compared to control; for effect on actin and nuclei number, high dose 24 h: 5 x IC50, 24 h, differences between 1 and 24 h treatment
Procedure: For this, the human osteosarcoma cell line U-2OS was treated using concentrations estimated based on previously determined IC50 values in murine L929 fibroblasts (Table 1), referred to as low dose (1 × IC50), and a 5-fold concentration, referred to as high dose (5 × IC50). Reorganization of the F-actin network was also investigated upon high dose treatment, followed by washout and a 1 h recovery phase in fresh medium. The impact on F-actin network organization was visualized using fluorescently labeled phalloidin (Figure 2). […] In addition, the effects on F-actin structures observed upon high dose treatment of all compounds were fully reversible after a 1 h recovery time (Figure 2m–q).
The respective previously determined IC50 values in L929 were used to calculate the treatment concentration (1 × IC50: low dose; 5 × IC50: high dose).[37] DMSO was used as the vehicle control, corresponding to the highest compound volume used in the assay. Coverslips were coated with 25 μg/mL fibronectin (Roche, Mannheim, Germany) diluted 1:40 in phosphate buffered saline (PBS, pH 7.4, Life Technologies), and cells were seeded at a density of 20,000 cells and allowed to spread overnight. CO2-equilibrated culture medium was spiked with the desired compound and DMSO, respectively, in the above-mentioned concentration, and cells were treated with prepared medium for 1 h under cell culture conditions. For long-term experiments, the treatment phase was extended to 24 h. Cells were washed once and fixed afterward using 4% prewarmed paraformaldehyde (PFA) supplied in PBS for 20 min at 37 °C, followed by three additional washing steps with prewarmed PBS buffer. In addition, the reversibility of high dose effects on F-actin network organization was investigated by a washout procedure including three times prewarmed PBS wash steps prior to the addition of fresh medium and a recovery time of 1 h before fixation. In the case of 24 h treatments, the recovery phase was extended to 47 h. Cells were permeabilized with 0.1% Triton X-100 (Bio-Rad Laboratories, Hercules, CA, USA) in PBS buffer for 1 min at room temperature, washed three times with PBS, and stained for F-actin using ATTO-594-coupled phalloidin (ATTO-Tec, Siegen, Germany) diluted in PBS buffer (1:100) for 1 h at room temperature. Coverslips were washed thrice in PBS and mounted in ProLong Diamond antifade mountant (Invitrogen) containing DAPI to probe for nuclear DNA. Cells were recorded using an inverted microscope (Nikon Eclipse Ti2, Tokyo, Japan) equipped with a 60 times Nikon oil immersion objective (Plan Apofluar, 1.4 NA), a pE-4000 (CoolLED, Andover, UK) as light source, and a pco.edge back-illuminated sCMOS camera (Excelitas Technologies, Mississauga, ON, Canada). The microscopy system was operated by and images were recorded with NIS (Nikon) and processed with ImageJ (NIH, Bethesda, MD, USA).

[3] = tested on: glucose carrier in human erythrocytes; details: cited from earlier work
[4] = tested on: KB3.1 (human cervix carcinoma); assay: Cytotoxicity assay (MTT), KB3.1; format: cell-based; details: 5 days of incubation, MTT, read-out: IC50 KB3.1
Procedure: The cytotoxicity assay was implemented in 96-well flat-bottom microtiter plates following a reported procedure.[21],[22],[33] The mammalian cell lines L929 (mouse fibroblast) and KB3.1 (human cervix carcinoma) were cultivated at 37 °C and 10% CO2 in Dulbecco’s modified minimum essential medium (DMEM, Life Technologies, Carlsbad, CA, USA) supplemented with 10% fetal bovine serum (FBS, Life Technologies). The microtiter plate was filled with 120 μL of suspended cells (50,000/mL), and 60 μL of a serial dilution of the test compound was added. After 5 days of incubation, growth inhibition (IC50) was determined by a colorimetric tetrazolium dye MTT assay.[34] The compounds were dissolved in MeOH (1 mg/mL), MeOH was used as negative control, and epothilone[35] (1 mg/mL) was used as positive control.

[5] = tested on: Schizosaccharomyces pombe (DSM 70572); assay: Serial dilution assay (MIC), S. pombe; format: cell-based; details: DSM70572, growth inhibition at 24 h, read-out: MIC against S. pombe
Procedure: as §1, §2

| SMILES | MIC [1] [µg/mL] | effect on F-actin network, high dose 1 h ([2]; 1 h) | effect on actin and nuclei number, high dose 24 h [2] | binding to site I of the glucose carrier ([3]; human erythrocyte membranes ref 30) | inhibition of glucose transport ([3]; human erythrocytes ref 29, 30) | IC50 [4] [µM] | IC50 ([4]; Homo sapiens, KB 3-1, 120 h) [µM] | MIC [5] [µg/mL] | effect on F-actin network, low dose ([2]; 1 x IC50 (L929), 1 h) |
| --- | --- | --- | --- | --- | --- | --- | --- | --- | --- |
| C=C1[C@@H](C)[C@H]2[C@H](Cc3ccccc3)NC(=O)[C@]23OC(=O)/C=C/[C@H](O)CCC[C@@H](C)C/C=C/[C@H]3[C@@H]1OC(C)=O [Compound 3, 7-O-acetyl cytochalasin B] | 66.6 (≈ 128 µM) | no such structures; also recorded: no effect | + actin disruption; also recorded: altered actin structures, however without inducing multinucleation | able to bind site I | inhibits glucose transport |  |  |  |  |
| C=C1[C@@H](C)[C@H]2[C@H](Cc3ccccc3)N(C(C)=O)C(=O)[C@]23OC(=O)/C=C/[C@H](O)CCC[C@@H](C)C/C=C/[C@H]3[C@@H]1O [Compound 5, N-acetyl cytochalasin B] |  | only slight; also recorded: moderate effects | + multinucleation actin disruption |  |  | 7.9 | 4.8 to 9.4 |  |  |
| C=C1[C@@H](C)[C@H]2[C@H](Cc3ccccc3)NC(=O)[C@]23OC(=O)/C=C/[C@H](OC(C)=O)CCC[C@@H](C)C/C=C/[C@H]3[C@@H]1O [Compound 6, 20-O-acetyl cytochalasin B] |  | complete collapse of the F-actin network; also recorded: actin disruption | + multinucleation |  |  |  |  | 33.3 (≈ 63.8 µM) | partially led to compromised lamellipodia and a reduction of intermittent, cytoplasmic F-actin |
